Data published in patent publication US12624034B2, “Non-covalent modifiers of AKT1 and uses thereof” (Terremoto Biosciences, Inc., priority 2023, dated 2026).
Read-outs that look alike come from different tables or passages of the source.

Experiments:
AKT2 = target: T1, AKT2 (Homo sapiens, UniProt P31751); experiment: Live cell AKT2 target engagement by NanoBRET competitive probe displacement in HEK293 cells; type: binding; settings: 2 h at 37° C., read-out: AKT2 IC50
T1 construct: expressed in transfected cells; host or cells: HEK293
T1 sequence (P31751 whole entry): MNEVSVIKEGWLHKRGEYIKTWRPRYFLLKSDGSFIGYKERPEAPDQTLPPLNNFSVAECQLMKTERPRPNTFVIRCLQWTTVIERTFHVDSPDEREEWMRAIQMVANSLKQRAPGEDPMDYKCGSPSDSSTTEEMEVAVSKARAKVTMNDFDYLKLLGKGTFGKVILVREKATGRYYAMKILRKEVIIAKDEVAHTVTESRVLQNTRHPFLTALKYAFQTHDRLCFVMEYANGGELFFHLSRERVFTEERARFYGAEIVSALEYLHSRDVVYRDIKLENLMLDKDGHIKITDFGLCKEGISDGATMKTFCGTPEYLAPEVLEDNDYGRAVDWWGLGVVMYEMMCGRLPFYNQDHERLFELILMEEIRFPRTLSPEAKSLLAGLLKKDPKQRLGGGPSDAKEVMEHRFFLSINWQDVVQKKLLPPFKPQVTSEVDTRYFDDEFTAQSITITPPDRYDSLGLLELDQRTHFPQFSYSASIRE
Method: (§1) Determining live cell AKT1 E17K, AKT1 WT, and AKT2 target engagement by NanoBRET competitive probe displacement. […] Briefly, HEK293 cells were transfected with plasmids encoding kinase-NanoLuciferase fusion proteins overnight. Cells were then treated with serial dilutions of compound and an ˜EC50 concentration of fluorescently-tagged ATP-competitive tracer (Promega). After incubation for 2 h at 37° C., luciferase substrate and extracellular luciferase inhibitor were added to all wells, and luminescent intensity at 460 nm and 600 nm were measured on a multimode plate-reader. The ratio of E600/E460 was calculated to give the tracer engagement signal (BRET). IC50 values were calculated by fitting BRET values to a log(inhibitor) vs. response Hill equation.

AKT1 WT = target: T2, AKT1 WT (Homo sapiens, UniProt P31749); experiment: Live cell AKT1 WT target engagement by NanoBRET competitive probe displacement in HEK293 cells; type: binding; settings: 2 h at 37° C., read-out: AKT1 WT IC50
T2 construct: expressed in transfected cells; host or cells: HEK293
T2 sequence (P31749 whole entry): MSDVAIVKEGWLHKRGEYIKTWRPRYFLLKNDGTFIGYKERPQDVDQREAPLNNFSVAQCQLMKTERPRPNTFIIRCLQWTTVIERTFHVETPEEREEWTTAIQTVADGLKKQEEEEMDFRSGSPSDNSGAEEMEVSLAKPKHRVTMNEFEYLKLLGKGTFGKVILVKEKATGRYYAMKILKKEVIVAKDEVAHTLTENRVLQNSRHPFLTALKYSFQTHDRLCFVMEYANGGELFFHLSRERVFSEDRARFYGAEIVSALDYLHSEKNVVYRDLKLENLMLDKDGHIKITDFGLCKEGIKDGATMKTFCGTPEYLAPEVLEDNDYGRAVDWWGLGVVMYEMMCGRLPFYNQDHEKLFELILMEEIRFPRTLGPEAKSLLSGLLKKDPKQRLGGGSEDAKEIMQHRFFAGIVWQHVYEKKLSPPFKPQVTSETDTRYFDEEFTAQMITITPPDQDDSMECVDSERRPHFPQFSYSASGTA
Method: as §1

[1] = NanoBRET live cell target engagement, HEK293 cells
[2] = NanoBRET competitive probe displacement, live HEK293 cells

| IC50 (AKT2; [1]) [nM] | IC50 (AKT1 WT; [1]) [nM] | IC50 (AKT2; [2]) [nM] | IC50 (AKT1 WT; [2]) [nM] | SMILES |
| --- | --- | --- | --- | --- |
| 604 | 38.6 | – | – | Cc1nnc(C)n1[C@H]1CCc2cc(-n3c(-c4cccnc4N)nc4ccc(-n5cccn5)nc43)ccc21 [Compound 272, (S)-3-(3-(1-(3,5-dimethyl-4H-1,2,4-triazol-4-yl)-2,3-dihydro-1H-inden-5-yl)-5-(1H-pyrazol-1-yl)-3H-imidazo[4,5-b]pyridin-2-yl)pyridin-2-amine] |
| – | – | 131 | 6.63 | Nc1ncccc1-c1nc2ccc(-n3cccn3)nc2n1-c1ccc2c(c1)CC[C@@H]2NC(=O)c1cc(C(F)F)ns1 [Compound 452] |
| 212 | 14.7 | – | – | Nc1ncccc1-c1nc2ccc(-n3cccn3)nc2n1-c1ccc2c(c1)CC[C@@H]2n1cc(-c2ccccn2)nn1 [Compound 200] |
| – | – | 945 | 16.1 | O=C(C1CC1)N1CCC(N[C@@H]2c3ccc(-n4c(-c5ccccc5F)nc5ccc(-n6ccc(N7CCOCC7)n6)nc54)cc3CC2F)CC1 (stereo partly shown) [Compound 572] |
| – | – | 6860 | 199 | Nc1ncccc1-c1nc2ccc(-n3cccn3)nc2n1-c1ccc2c(c1)CC[C@@H]2N1Cc2ccncc2C1 [Compound 494] |
| 82.9 | 7.74 | – | – | CC#Cc1cc(C(=O)N[C@H]2CCc3cc(-n4c(-c5cccnc5N)nc5ccc(-n6cccn6)nc54)ccc32)ccn1 [Compound 171, (S)—N-(5-(2-(2-aminopyridin-3-yl)-5-(1H-pyrazol-1-yl)-3H-imidazo[4,5-b]pyridin-3-yl)-2,3-dihydro-1H-inden-1-yl)-2-(prop-1-yn-1-yl)isonicotinamide] |
| 46.7 | 4.75 | – | – | Nc1ncccc1-c1nc2ccc(-n3cccn3)nc2n1-c1ccc2c(c1)CC[C@@H]2NC(=O)c1cc(F)c2[nH]ncc2c1 [Compound 261] |
| 24.9 | 17.2 | – | – | Cc1ncccc1C(=O)N[C@H]1CCc2cc(-n3c(-c4cccnc4N)nc4c(C)cc(-n5cccn5)nc43)ccc21 [Compound 100] |
| 2290 | 46.4 | – | – | Nc1ncccc1-c1nc2ccc(C3CC3)nc2n1-c1ccc2c(c1)CC[C@@H]2NC(=O)c1ccc(C(F)F)nc1 [Compound 130] |
| – | – | 5640 | 318 | Cn1ccc(=O)n1-c1ccn(-c2ccc3nc(-c4cccnc4N)n(-c4ccc5c(c4)CC[C@@H]5NC4CCN(C(=O)C5CC5)CC4)c3n2)n1 [Compound 573] |
| – | – | 3780 | 805 | C#Cc1cc(-n2nccn2)nc2c1nc(-c1cccnc1N)n2-c1ccc2c(c1)CC[C@@H]2NC(=O)c1ccc(C(F)F)nc1 [Compound 583] |
| – | – | 540 | 35.9 | Cc1ccc(C(=O)N[C@H]2CCc3cc(-n4c(-c5cccnc5N)nc5ccc(-n6cnc(C7CC7)n6)nc54)ccc32)cn1 [Compound 419] |
| – | – | 627 | 75.9 | COc1nccc2c1CCC2N[C@H]1CCc2cc(-n3c(-c4cccnc4N)nc4ccc(-n5cccn5)nc43)ccc21 (stereo partly shown) [Compound 508] |
| 219 | 11.5 | – | – | Cn1ccc(C#Cc2cc(C(=O)N[C@H]3CCc4cc(-n5c(-c6cccnc6N)nc6ccc(-n7cccn7)nc65)ccc43)ccn2)n1 [Compound 182] |
| 1900 | 149 | – | – | Nc1ncccc1-c1nc2ccc(-n3cccn3)nc2n1-c1ccc2c(c1)CC[C@@H]2N1CCC1 [Compound 87, (S)-3-(3-(1-(azetidin-1-yl)-2,3-dihydro-1H-inden-5-yl)-5-(1H-pyrazol-1-yl)-3H-imidazo[4,5-b]pyridin-2-yl)pyridin-2-amine] |
| – | – | 695 | 20.5 | Nc1ncccc1-c1nc2ccc(-n3cccn3)nc2n1-c1ccc2c(c1)CC[C@@H]2NC1CCCc2ccncc21 (stereo partly shown) [Compound 501] |
| 107 | 18.2 | – | – | Cc1cc(C(=O)N[C@H]2CCc3cc(-n4c(-c5cccnc5N)nc5ccc(-n6cccn6)nc54)ccc32)c(C)nc1C [Compound 150] |
| – | – | 1330 | 33.5 | Nc1ncccc1-c1nc2ccc(-n3ccc(OC(F)F)n3)nc2n1-c1ccc2c(c1)CC(F)[C@@H]2NC1CCN(C(=O)C2CC2)CC1 (stereo partly shown) [Compound 525] |
| 315 | 24.7 | – | – | Nc1ncccc1-c1nc2ccc(-n3cccn3)nc2n1-c1ccc2c(c1)CC[C@@H]2NC(=O)c1cc2ncccn2n1 [Compound 176] |
| 228 | 12 | – | – | Nc1ncccc1-c1nc2ccc(-n3cccn3)nc2n1-c1ccc2c(c1)CC[C@@H]2n1cnnc1Cc1ccccc1 [Compound 169, (S)-3-(3-(1-(3-benzyl-4H-1,2,4-triazol-4-yl)-2,3-dihydro-1H-inden-5-yl)-5-(1H-pyrazol-1-yl)-3H-imidazo[4,5-b]pyridin-2-yl)pyridin-2-amine] |
| – | – | 2620 | 188 | Nc1ncccc1-c1nc2ccc(-n3cccn3)nc2n1-c1ccc2c(c1)CC[C@@H]2NC1CCN(C(=O)C2COC2)CC1 [Compound 423] |
| 296 | 15.1 | – | – | CNS(=O)(=O)c1ccc(C(=O)N[C@H]2CCc3cc(-n4c(-c5cccnc5N)nc5ccc(-n6cccn6)nc54)ccc32)cc1 [Compound 308] |

| IC50 (AKT2; [1]) [nM] | IC50 (AKT1 WT; [1]) [nM] | IC50 (AKT2; [2]) [nM] | IC50 (AKT1 WT; [2]) [nM] | SMILES |
| --- | --- | --- | --- | --- |
| 532 | 721 | – | – | Cc1cc(C(=O)N[C@H]2CCc3cc(-n4c(-c5cccnc5N)nc5ccc(-n6cccn6)nc54)ccc32)nn1C [Compound 126] |
| – | – | 1740 | 48.4 | COc1ccn(-c2ccc3nc(-c4cccnc4N)n(-c4ccc5c(c4)CC[C@@H]5NC4[C@@H]5COC[C@H]4CN(C(=O)C4CC4)C5)c3n2)n1 (single isomer, unassigned) [Compound 523] |
| 123 | 10.8 | – | – | Nc1ncccc1-c1nc2ccc(-n3cccn3)nc2n1-c1ccc2c(c1)CC[C@@H]2NC(=O)c1cccc(O)c1 [Compound 307] |
| 752 | 51.6 | – | – | Nc1ncccc1-c1nc2ccc(-n3cccn3)nc2n1-c1ccc2c(c1)CC[C@@H]2n1nnc2ccccc21 [Compound 345] |
| – | – | 621 | 8.2 | Fc1ccccc1-c1nc2ccc(-n3cccn3)nc2n1-c1ccc2c(c1)CC[C@@H]2n1cnnc1 [Compound 529] |
| 9910 | 704 | – | – | Nc1ncccc1-c1nc2ccc(-n3cccn3)nc2n1-c1ccc2c(c1)CC[C@@H]2NC(=O)[C@@H]1CCO1 [Compound 373] |
| 138 | 24.9 | – | – | Cc1ncc(C(=O)N[C@H]2CCc3cc(-n4c(-c5cccnc5N)nc5ccc(-n6cccn6)nc54)ccc32)cn1 [Compound 143] |
| – | – | 57.6 | 7.43 | COCc1cc(C(=O)N[C@H]2CCc3cc(-n4c(-c5cccnc5N)nc5ccc(-n6cccn6)nc54)ccc32)ccc1O [Compound 410, (S)—N-(5-(2-(2-aminopyridin-3-yl)-5-(1H-pyrazol-1-yl)-3H-imidazo[4,5-b]pyridin-3-yl)-2,3-dihydro-1H-inden-1-yl)-4-hydroxy-3-(methoxymethyl)benzamide] |
| – | – | 2100 | 14.4 | Cc1ccc(C(=O)N[C@H]2CCc3cc(-n4c(-c5ccccc5)nc5ccc(-n6cccn6)nc54)ccc32)cn1 [Compound 400] |
| – | – | 452 | 12.1 | COc1ccn(-c2ccc3nc(-c4cccnc4N)n(-c4ccc5c(c4)CC[C@@H]5NC4CCN(C(=O)C5CC5)CC4F)c3n2)n1 (stereo partly shown) [Compound 515] |
| 3520 | 88.2 | – | – | Nc1ncccc1-c1nc2ccc(-n3cccn3)nc2n1-c1ccc2c(c1)CC[C@@H]2n1cnnc1-c1ccccc1 [Compound 178] |
| 1570 | 60.4 | – | – | Cn1ncc(-c2ccc3nc(-c4cccnc4N)n(-c4ccc5c(c4)CC[C@@H]5n4ccnn4)c3n2)n1 [Compound 247] |
| 191 | 19.1 | – | – | Nc1ccc(C(=O)N[C@H]2CCc3cc(-n4c(-c5cccnc5N)nc5ccc(-n6cccn6)nc54)ccc32)cn1 [Compound 311] |
| 1580 | 50.3 | – | – | COCc1ncccc1C(=O)N[C@H]1CCc2cc(-n3c(-c4cccnc4N)nc4ccc(-n5cccn5)nc43)ccc21 [Compound 149] |
| 2020 | 45.5 | – | – | Nc1ncccc1-c1nc2ccc(C#CC3CCC3)nc2n1-c1ccc2c(c1)CC[C@@H]2NC(=O)c1ccc(C(F)F)nc1 [Compound 226] |
| – | – | 973 | 57.6 | COc1ccn(-c2ccc3nc(-c4cccnc4N)n(-c4ccc5c(c4)CC(F)[C@@H]5NC4CN(C(=O)C5CC5)C4)c3n2)n1 (stereo partly shown) [Compound 493] |
| 2850 | 554 | – | – | Nc1ncccc1-c1nc2ccc(-n3cccn3)nc2n1-c1ccc2c(c1)CC[C@@H]2NC(=O)c1ccc2[nH][nH]c(=O)c2c1 [Compound 189] |
| 126 | 12.6 | – | – | Nc1ncccc1-c1nc2ccc(-n3cccn3)nc2n1-c1ccc2c(c1)CC[C@@H]2NC(=O)c1cccnc1F [Compound 127] |
| 56.5 | 5.14 | – | – | Nc1ncccc1-c1nc2ccc(-n3cccn3)nc2n1-c1ccc2c(c1)CC[C@@H]2NC(=O)c1cnc2cccn2c1 [Compound 291] |
| – | – | 1740 | 48.4 | COc1ccn(-c2ccc3nc(-c4cccnc4N)n(-c4ccc5c(c4)CC[C@@H]5NC4[C@@H]5COC[C@H]4CN(C(=O)C4CC4)C5)c3n2)n1 (single isomer, unassigned) [Compound 524] |
| – | – | 903 | 20.4 | Nc1ncccc1-c1nc2ccc(C#CC3CC3)nc2n1-c1ccc2c(c1)CC[C@@H]2NC(=O)c1ccc(C(F)F)nc1 [Compound 406] |
| 312 | 13.9 | – | – | COc1nccc(C(=O)N[C@H]2CCc3cc(-n4c(-c5cccnc5N)nc5ccc(-n6nccn6)nc54)ccc32)c1C [Compound 380] |
